Converted amounts (≈) assume the structure as drawn. Like-named read-outs stand apart in the source and are kept apart here.
Columns and labels:
Assay in all cases: microbe, parasite or virus in culture
Conditions in all cases: 48 h, read-out: MIC
[1] = tested on: Candida albicans C. a.^f (Table 4); parameters: species or system yeast; tube dilution MIC in YEPD (± 1.2 M sorbitol), complete growth inhibition by turbidity
Method: (§1) Standard YEPD (Yeast Extract, Peptone, Dextrose) ([Sherman, 1990]), YEPD+S (YEPD with 1.2M sorbitol), YES (Yeast Extract, Dextrose and Supplements of Adenine, Histidine, Leucine, Uracil and Lysine) ([Alfa et al., 1993]) and YES+S (YES with 1.2 M sorbitol) ([Ribas et al., 1991]; [Ishiguro et al., 1997]), media were used for determination of MIC values of the tested compounds. A stock solution of 10 mg/ml of each tested compounds was prepared in DMSO and serial dilutions in DMSO were prepared. The final concentration of DMSO was 2% in the YEPD medium. […] The serial dilutions of compounds were dispensed into test tubes with 1 ml of YEPD or YEPD+S to make final concentrations of 200, 100, 50, 25, 12.5, 6.26, 3.125, 1.6, 0.8 and 0.4 μg/ml. The tested yeast strains were previously grown in YEPD, YEPD+S, YES or YES+S agar plates at 30°C for 48 h. For inoculation of YEPD or YEPD+S macro test tubes a suspension of tested fungus was produced with 10^5 cfu/ml (cfu - colony forming unit). 10 μl of suspension was used for inoculation of each tube. After 48 h incubation at 30°C the tubes were checked. The MIC value is the lowest concentration of the tested compound that could inhibit the fungal growth and the medium remained clear. From each tube 10 μl culture was plated on YEPD agar medium to check the contamination. The MIC tests were carried out in three parallels. Micro-culture assays of large numbers of samples were analyzed as described) ([Martins et al., 2011]). Essentially early log-phase cells were grown in YEPD, YEPD+S, YES or YES+S (1.2 M sorbitol) medium at 30°C, and diluted to cell density of 4 X 10^6 cells/ml in YEPD, YEPD+S, YES or YES+S medium and aliquots of 100 μl were dispensed into each small test tube (3 ml test tube size). Then, another 100 μl of YEPD, YEPD+S, YES or YES+S with the corresponding dilution of each compound at 2X concentration (4% DMSO) was added. The final volume was 200 μl, with the cells diluted to of 2 X 10^6 cells/ml and each compound diluted to 1X final concentration, containing increasing concentrations of antifungal (0, 1, 2, 5, 10, 20, 50, 100 and 200 μg/ml) or an equivalent volume of solvent (2% DMSO). The cells were grown at 30°C in an orbital roller and turbidity was analyzed after 24 and 48 h of incubation. The MIC was determined as the minimal concentration of tested compound that produced complete cell growth inhibition and kept the medium clear. The MIC values were calculated from at least three independent experiments.

[2] = tested on: Candida albicans C. a.^g (Table 4); parameters: species or system yeast; tube dilution MIC in YEPD (± 1.2 M sorbitol), complete growth inhibition by turbidity
Method: as §1

[3] = tested on: Candida albicans C. a.^h (Table 4); parameters: species or system yeast; tube dilution MIC in YEPD (± 1.2 M sorbitol), complete growth inhibition by turbidity
Method: as §1

[4] = tested on: T1, Saccharomyces cerevisiae S. c.^d (wild-type CVX12-3A); parameters: species or system yeast; tube dilution MIC in YEPD (± 1.2 M sorbitol), complete growth inhibition by turbidity
T1 construct: CVX12-3A
Method: as §1

[5] = tested on: T2, Schizosaccharomyces pombe S. p.^a (wild-type 972 h-); parameters: species or system yeast; tube dilution MIC in YEPD (± 1.2 M sorbitol), complete growth inhibition by turbidity
T2 construct: 972 h-
Method: as §1

[6] = tested on: Candida albicans C. a.^f (Tables 5, 6); parameters: species or system yeast; micro tube dilution MIC in YES (± 1.2 M sorbitol), complete growth inhibition by turbidity
Method: as §1, with “h.” for “h. For inoculation of YEPD or YEPD+S macro test tubes a suspension of tested fungus was produced with 10^5 cfu/ml (cfu - colony forming unit). 10 μl of suspension was used for inoculation of each tube. After 48 h incubation at 30°C the tubes were checked. The MIC value is the lowest concentration of the tested compound that could inhibit the fungal growth and the medium remained clear. From each tube 10 μl culture was plated on YEPD agar medium to check the contamination. The MIC tests were carried out in three parallels.”

[7] = tested on: Candida albicans C. a.^g (Table 6); parameters: species or system yeast; micro tube dilution MIC in YES (± 1.2 M sorbitol), complete growth inhibition by turbidity
Method: as §1, with “h.” for “h. For inoculation of YEPD or YEPD+S macro test tubes a suspension of tested fungus was produced with 10^5 cfu/ml (cfu - colony forming unit). 10 μl of suspension was used for inoculation of each tube. After 48 h incubation at 30°C the tubes were checked. The MIC value is the lowest concentration of the tested compound that could inhibit the fungal growth and the medium remained clear. From each tube 10 μl culture was plated on YEPD agar medium to check the contamination. The MIC tests were carried out in three parallels.”

[8] = tested on: T1, Saccharomyces cerevisiae S. c.^d (wild-type CVX12-3A); parameters: species or system yeast; micro tube dilution MIC in YES (± 1.2 M sorbitol), complete growth inhibition by turbidity
Method: as §1, with “h.” for “h. For inoculation of YEPD or YEPD+S macro test tubes a suspension of tested fungus was produced with 10^5 cfu/ml (cfu - colony forming unit). 10 μl of suspension was used for inoculation of each tube. After 48 h incubation at 30°C the tubes were checked. The MIC value is the lowest concentration of the tested compound that could inhibit the fungal growth and the medium remained clear. From each tube 10 μl culture was plated on YEPD agar medium to check the contamination. The MIC tests were carried out in three parallels.”

[9] = tested on: T2, Schizosaccharomyces pombe S. p.^a (wild-type 972 h-); parameters: species or system yeast; micro tube dilution MIC in YES (± 1.2 M sorbitol), complete growth inhibition by turbidity
Method: as §1, with “h.” for “h. For inoculation of YEPD or YEPD+S macro test tubes a suspension of tested fungus was produced with 10^5 cfu/ml (cfu - colony forming unit). 10 μl of suspension was used for inoculation of each tube. After 48 h incubation at 30°C the tubes were checked. The MIC value is the lowest concentration of the tested compound that could inhibit the fungal growth and the medium remained clear. From each tube 10 μl culture was plated on YEPD agar medium to check the contamination. The MIC tests were carried out in three parallels.”

Question: How did the MIC [1] turn out when C[C@@H]1[C@H](O)[C@@H](C)/C=C/C=C/C=C/C=C/C=C/C=C/C=C/[C@H](O[C@@H]2O[C@H](C)[C@@H](O)[C@H](N)[C@@H]2O)C[C@@H]2O[C@](O)(C[C@@H](O)C[C@@H](O)[C@H](O)CC[C@@H](O)C[C@@H](O)CC(=O)O[C@H]1C)C[C@H](O)[C@H]2C(=O)O [amphotericin B] was run?
Answer: 0.4 µg/mL (≈ 0.433 µM)

Question: What about the MIC [2] of the same compound?
Answer: 0.8 µg/mL (≈ 0.866 µM)

Question: What about the MIC [3] of the same compound?
Answer: 0.4 µg/mL (≈ 0.433 µM)

Question: What about the MIC [4] of the same compound?
Answer: 0.2 µg/mL (≈ 0.216 µM)

Question: What about the MIC [5] of the same compound?
Answer: < 0.1 µg/mL

Question: And the MIC [6]?
Answer: 0.8 µg/mL (≈ 0.866 µM)

Question: And the MIC [7]?
Answer: 0.4 µg/mL (≈ 0.433 µM)

Question: What about the MIC [8] of the same compound?
Answer: 0.2 µg/mL (≈ 0.216 µM)

Question: What about the MIC [9] of the same compound?
Answer: < 0.1 µg/mL

Source: PMC6689975, “Novel Cell Wall Antifungals Reveal a Special Synergistic Activity in pbr1 Mutants Resistant to the Glucan Synthesis Antifungals Papulacandins and Echinocandins” (Frontiers in Microbiology, 2019)
